Target: SARS-CoV-2 M^pro (Severe acute respiratory syndrome coronavirus 2, UniProt P0DTD1)
Experiment: FRET protease enzymatic inhibition assay
Assay type: biochemical
Details: for M^pro Inhibition rate at 50 μM: compound at 50 μM, FRET assay; for inhibition at 50 µM: read-out: M^pro Inhibition rate at 50 μM

| Compound | M^pro Inhibition rate at 50 μM | further results |
| --- | --- | --- |
| COc1ccc(-c2cc(=O)c3c(OC)c(O)c(O)cc3o2)cc1 [Compound 5, 6,7-dihydroxy-5-methoxy-2-(4-methoxyphenyl) chromone] |  | IC50: 16.7 ± 2.09 µM |
| COc1ccc(-c2cc(=O)c3c(O)c(OC)c(O)cc3o2)cc1 [Compound 3, Pectolinarigenin] | reduced rates of inhibition |  |
| O=c1cc(-c2ccc(O)cc2)oc2cc(O)c(O)c(O)c12 [Compound 1, Scutellarein] |  | inhibition at 50 µM: 102% |
| O=c1cc(-c2ccccc2)oc2cc(O)c(O)c(O)c12 [Compound 8, Baicalein, reference compound] |  | inhibition at 50 µM: 103% |
| COc1ccc(-c2cc(=O)c3c(OC)c(OC)c(OC)cc3o2)cc1 [Compound 7, 5,6,7,4'-tetramethoxyflavone] | reduced rates of inhibition |  |
| COc1ccc(-c2cc(=O)c3c(O)c(OC)c(OC)cc3o2)cc1 [Compound 6, Salvigenin] | reduced rates of inhibition |  |
| COc1c(O)cc2oc(-c3ccc(O)cc3)cc(=O)c2c1O [Compound 2, Hispidulin] | reduced rates of inhibition |  |
